Active and inactive are the calls of the source. The calls are words filed in the database; no cut-off is given here.
Tests used:
[1] = target: AMP-activated protein kinase alpha-1/beta-2/gamma-3 (Homo sapiens) (UniProt O43741+Q13131+Q9UGI9); experiment: Activation of human recombinant AMPKalpha1beta2gamma3 expressed in Escherichia coli at 20 uM incubated for 1 hr using serine/threonine kinase substrate
[2] = Tmax in Sprague-Dawley rat at 10 mg/kg, po; assay type: ADME, organism-based; conditions: in vivo
[3] = target: AMP-activated protein kinase alpha-2/beta-1/gamma-3 (Homo sapiens) (UniProt P54646+Q9Y478+Q9UGI9); experiment: Activation of human recombinant AMPKalpha2beta1gamma3 expressed in Escherichia coli at 20 uM incubated for 1 hr using serine/threonine kinase substrate
[4] = target: AMP-activated protein kinase alpha-2/beta-2/gamma-2 (Homo sapiens) (UniProt P54646+O43741+Q9UGJ0); experiment: Activation of human recombinant AMPKalpha2beta2gamma2 expressed in Escherichia coli at 20 uM incubated for 1 hr using serine/threonine kinase substrate
Hepatocyte [5] = experiment: Inhibition of glucose production in Sprague-Dawley rat primary hepatocytes grown under gluconeogenic medium assessed as glucose production level at 10 uM incubated for 6 hrs by glucose assay reagent based glucose oxidase method (reference value: 100%); assay type: functional; design: scale not given: the % may be the effect or the level left
[6] = AUCt in C57BL/6J mouse at 10 mg/kg, po; assay type: ADME, organism-based; conditions: in vivo
[7] = AUC in Sprague-Dawley rat at 2 mg/kg, iv; assay type: ADME, organism-based; conditions: in vivo
[8] = target: AMPK alpha1/beta2/gamma1 (Homo sapiens) (UniProt O43741+P54619+Q13131); experiment: Activation of human recombinant AMPKalpha1beta2gamma1 expressed in Escherichia coli at 20 uM incubated for 1 hr using serine/threonine kinase substrate
[9] = Tmax in Sprague-Dawley rat at 2 mg/kg, iv; assay type: ADME, organism-based; conditions: in vivo
Mus musculus [10] = experiment: Antidiabetic activity in db/db mouse assessed as reduction in fasting blood glucose level at 120 mg/kg/day dosed via gavage for 4 weeks measured during 2 to 4 weeks; assay type: functional, organism-based
Hepatocyte [11] = experiment: Inhibition of glucose production in Sprague-Dawley rat primary hepatocytes grown under gluconeogenic medium incubated for 6 hrs by glucose assay reagent based glucose oxidase method (reference value: 100%); assay type: functional, cell-based
[12] = AUC in C57BL/6J mouse at 10 mg/kg, po; assay type: ADME, organism-based; conditions: in vivo
[13] = MRT in C57BL/6J mouse at 10 mg/kg, po; assay type: ADME, organism-based; conditions: in vivo
[14] = Tmax in C57BL/6J mouse at 10 mg/kg, po; assay type: ADME, organism-based; conditions: in vivo
Mus musculus [15] = experiment: Antidiabetic activity in db/db mouse assessed as effect on glucose tolerance capacity by measuring blood glucose AUC level at 120 mg/kg/day dosed via gavage for 4 weeks by OGTT; assay type: functional, organism-based
[16] = target: AMPK alpha1/beta1/gamma2 (Homo sapiens) (UniProt Q9UGJ0+Q9Y478+Q13131); experiment: Activation of human recombinant AMPKalpha1beta1gamma2 expressed in Escherichia coli at 20 uM incubated for 1 hr using serine/threonine kinase substrate
L6 [17] = experiment: Inhibition of oxygen consumption rate in rat L6 cells assessed as oxygen consumption level at 10 uM (reference value: 100 +/- 1.6%); assay type: functional; design: scale not given: the % may be the effect or the level left
L6 [18] = experiment: Activation of AMPKalpha in rat L6 cells assessed as increase in ACC phosphorylation incubated for 1 hrs by Western blot method; assay type: cell-based
[19] = AUCt in Sprague-Dawley rat at 10 mg/kg, po; assay type: ADME, organism-based; conditions: in vivo
[20] = Half life in Sprague-Dawley rat at 2 mg/kg, iv; assay type: ADME, organism-based; conditions: in vivo
[21] = target: Voltage-gated inwardly rectifying potassium channel KCNH2 (Homo sapiens, UniProt Q12809); experiment: Inhibition of human ERG by patch clamp assay
Hepatocyte [22] = experiment: Inhibition of glucose production in Sprague-Dawley rat primary hepatocytes grown under gluconeogenic medium assessed as glucose production level at 5 uM incubated for 6 hrs by glucose assay reagent based glucose oxidase method (reference value: 100%); assay type: functional; design: scale not given: the % may be the effect or the level left
[23] = Cmax in C57BL/6J mouse at 10 mg/kg, po; assay type: ADME, organism-based; design: dose 10 mg/kg, route oral; conditions: in vivo
L6 [24] = experiment: Inhibition of oxygen consumption rate in isolated mitochondria from rat L6 cells; assay type: functional
L6 [25] = experiment: Stimulation of glucose consumption in rat L6 cells at 20 uM incubated for 12 hrs by glucose assay reagent based glucose oxidase method relative to untreated control; assay type: functional
[26] = MRT in Sprague-Dawley rat at 10 mg/kg, po; assay type: ADME, organism-based; conditions: in vivo
[27] = Half life in Sprague-Dawley rat at 10 mg/kg, po; assay type: ADME, organism-based; conditions: in vivo
[28] = Cmax in Sprague-Dawley rat at 10 mg/kg, po; assay type: ADME, organism-based; design: dose 10 mg/kg, route oral; conditions: in vivo
L6 [29] = experiment: Activation of AMPKalpha in rat L6 cells assessed as increase in AMPKalpha Thr172 phosphorylation incubated for 1 hrs by Western blot method; assay type: cell-based
[30] = AUC in Sprague-Dawley rat at 10 mg/kg, po; assay type: ADME, organism-based; conditions: in vivo
[31] = Oral bioavailability in Sprague-Dawley rat at 10 mg/kg; assay type: ADME, organism-based; conditions: in vivo
[32] = target: AMP-activated protein kinase (AMPK) alpha-1/beta-1/gamma-1 (Homo sapiens) (UniProt P54619+Q9Y478+Q13131); experiment: Activation of human recombinant AMPKalpha1beta1gamma1 expressed in Escherichia coli at 20 uM incubated for 1 hr using serine/threonine kinase substrate
[33] = Inhibition of oxygen consumption rate in isolated mitochondria from rat L6 cells assessed as oxygen consumption level at 5 uM (reference value: 100 +/- 1.9%); assay type: functional; design: scale not given: the % may be the effect or the level left
L6 [34] = experiment: Inhibition of mitochondrial membranes potential in rat L6 cells assessed as mitochondrial membranes potential level at 20 uM incubated for 40 mins by JC1 dye staining based fluorescence assay (reference value: 100 +/- 2.8%); assay type: functional; design: scale not given: the % may be the effect or the level left
L6 [35] = experiment: Inhibition of oxygen consumption rate in rat L6 cells; assay type: functional, cell-based
[36] = Inhibition of oxygen consumption rate in isolated mitochondria from rat L6 cells assessed as oxygen consumption level at 1.2 uM (reference value: 100 +/- 1.9%); assay type: functional; design: scale not given: the % may be the effect or the level left
[37] = Cmax in Sprague-Dawley rat at 2 mg/kg, iv; assay type: ADME, organism-based; design: dose 2 mg/kg, route intravenous; conditions: in vivo
L6 [38] = experiment: Inhibition of oxygen consumption rate in rat L6 cells assessed as oxygen consumption level at 20 uM (reference value: 100 +/- 1.6%); assay type: functional; design: scale not given: the % may be the effect or the level left
[39] = Inhibition of oxygen consumption rate in isolated mitochondria from rat L6 cells assessed as oxygen consumption level at 10 uM (reference value: 100 +/- 1.9%); assay type: functional; design: scale not given: the % may be the effect or the level left
[40] = Inhibition of oxygen consumption rate in isolated mitochondria from rat L6 cells assessed as oxygen consumption level at 2.5 uM (reference value: 100 +/- 1.9%); assay type: functional; design: scale not given: the % may be the effect or the level left
Hepatocyte [41] = experiment: Inhibition of glucose production in Sprague-Dawley rat primary hepatocytes grown under gluconeogenic medium assessed as glucose production level at 20 uM incubated for 6 hrs by glucose assay reagent based glucose oxidase method (reference value: 100%); assay type: functional; design: scale not given: the % may be the effect or the level left
[42] = target: AMPK alpha2/beta1/gamma1 (Homo sapiens) (UniProt P54646+P54619+Q9Y478); experiment: Activation of human recombinant AMPKalpha2beta1gamma1 expressed in Escherichia coli at 20 uM incubated for 1 hr using serine/threonine kinase substrate
Hepatocyte [43] = experiment: Potency index, ratio of berberine potency to compound potency for inhibition of glucose production in Sprague-Dawley rat primary hepatocytes grown under gluconeogenic medium aincubated for 6 hrs by glucose assay reagent based glucose oxidase method; assay type: functional
[44] = AUCt in Sprague-Dawley rat at 2 mg/kg, iv; assay type: ADME, organism-based; conditions: in vivo
Rattus norvegicus = experiment: Clearance in Sprague-Dawley rat at 2 mg/kg, iv; assay type: ADME, organism-based; conditions: in vivo
[45] = MRT in Sprague-Dawley rat at 2 mg/kg, iv; assay type: ADME, organism-based; conditions: in vivo
[46] = target: AMPK alpha2/beta2/gamma1 (Homo sapiens) (UniProt P54646+O43741+P54619); experiment: Activation of human recombinant AMPKalpha2beta2gamma1 expressed in Escherichia coli at 20 uM incubated for 1 hr using serine/threonine kinase substrate

Chain of AMP-activated protein kinase (AMPK) alpha-1/beta-1/gamma-1 (Homo sapiens) (P54619 whole entry): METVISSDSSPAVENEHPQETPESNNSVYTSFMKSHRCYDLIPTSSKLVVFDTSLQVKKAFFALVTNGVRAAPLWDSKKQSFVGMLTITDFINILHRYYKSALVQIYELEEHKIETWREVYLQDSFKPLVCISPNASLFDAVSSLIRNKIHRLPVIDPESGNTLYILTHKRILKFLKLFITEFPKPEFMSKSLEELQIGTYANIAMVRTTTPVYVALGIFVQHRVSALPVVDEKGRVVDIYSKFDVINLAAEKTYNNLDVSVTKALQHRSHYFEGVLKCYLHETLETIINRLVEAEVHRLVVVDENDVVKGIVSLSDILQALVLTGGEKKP
Chain of AMP-activated protein kinase (AMPK) alpha-1/beta-1/gamma-1 (Homo sapiens) (Q13131 whole entry partner): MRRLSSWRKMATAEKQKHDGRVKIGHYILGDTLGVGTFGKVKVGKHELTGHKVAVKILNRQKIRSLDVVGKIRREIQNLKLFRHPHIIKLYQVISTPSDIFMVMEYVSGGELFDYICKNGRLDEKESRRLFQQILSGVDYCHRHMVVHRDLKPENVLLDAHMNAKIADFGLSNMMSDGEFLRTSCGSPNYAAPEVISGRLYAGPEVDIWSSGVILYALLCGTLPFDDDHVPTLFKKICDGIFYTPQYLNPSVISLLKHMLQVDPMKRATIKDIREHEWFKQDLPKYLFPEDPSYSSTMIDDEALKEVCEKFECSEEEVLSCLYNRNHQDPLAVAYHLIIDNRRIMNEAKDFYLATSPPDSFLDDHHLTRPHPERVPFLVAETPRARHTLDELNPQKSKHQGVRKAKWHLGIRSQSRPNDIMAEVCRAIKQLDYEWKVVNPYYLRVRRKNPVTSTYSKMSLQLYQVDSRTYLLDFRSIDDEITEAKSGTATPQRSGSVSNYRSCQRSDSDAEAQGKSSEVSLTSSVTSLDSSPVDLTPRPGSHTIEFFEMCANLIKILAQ
Chain of AMP-activated protein kinase (AMPK) alpha-1/beta-1/gamma-1 (Homo sapiens) (Q9Y478 2-270 partner limits assumed): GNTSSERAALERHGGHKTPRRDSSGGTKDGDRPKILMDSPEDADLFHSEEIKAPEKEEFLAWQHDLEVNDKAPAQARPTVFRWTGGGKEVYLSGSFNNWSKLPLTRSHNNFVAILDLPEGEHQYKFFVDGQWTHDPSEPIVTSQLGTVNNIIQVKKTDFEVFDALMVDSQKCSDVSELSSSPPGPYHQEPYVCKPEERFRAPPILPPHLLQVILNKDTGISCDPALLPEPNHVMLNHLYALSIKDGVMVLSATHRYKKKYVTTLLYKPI
Chain of AMPK alpha2/beta1/gamma1 (Homo sapiens) (P54619 whole entry partner): as the sequence (P54619 whole entry) above
Chain of AMPK alpha2/beta1/gamma1 (Homo sapiens) (P54646 whole entry): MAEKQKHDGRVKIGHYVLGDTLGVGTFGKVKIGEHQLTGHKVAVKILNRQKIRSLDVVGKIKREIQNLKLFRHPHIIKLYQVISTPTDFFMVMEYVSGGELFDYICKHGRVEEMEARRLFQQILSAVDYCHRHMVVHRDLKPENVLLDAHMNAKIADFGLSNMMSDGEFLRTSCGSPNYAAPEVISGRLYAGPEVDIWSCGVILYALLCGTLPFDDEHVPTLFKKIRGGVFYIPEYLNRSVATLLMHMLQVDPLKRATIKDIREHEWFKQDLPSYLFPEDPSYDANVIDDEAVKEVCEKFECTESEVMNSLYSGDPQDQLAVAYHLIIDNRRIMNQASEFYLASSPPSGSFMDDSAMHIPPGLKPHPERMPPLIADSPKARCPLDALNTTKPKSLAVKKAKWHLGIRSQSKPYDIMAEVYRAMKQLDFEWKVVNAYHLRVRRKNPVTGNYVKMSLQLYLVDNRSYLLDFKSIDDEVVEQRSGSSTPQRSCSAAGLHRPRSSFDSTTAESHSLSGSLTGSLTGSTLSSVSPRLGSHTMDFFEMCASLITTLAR
Chain of AMPK alpha2/beta1/gamma1 (Homo sapiens) (Q9Y478 2-270 partner limits assumed): as the sequence (Q9Y478 2-270 partner limits assumed) above
Chain of Voltage-gated inwardly rectifying potassium channel KCNH2 (Q12809 whole entry): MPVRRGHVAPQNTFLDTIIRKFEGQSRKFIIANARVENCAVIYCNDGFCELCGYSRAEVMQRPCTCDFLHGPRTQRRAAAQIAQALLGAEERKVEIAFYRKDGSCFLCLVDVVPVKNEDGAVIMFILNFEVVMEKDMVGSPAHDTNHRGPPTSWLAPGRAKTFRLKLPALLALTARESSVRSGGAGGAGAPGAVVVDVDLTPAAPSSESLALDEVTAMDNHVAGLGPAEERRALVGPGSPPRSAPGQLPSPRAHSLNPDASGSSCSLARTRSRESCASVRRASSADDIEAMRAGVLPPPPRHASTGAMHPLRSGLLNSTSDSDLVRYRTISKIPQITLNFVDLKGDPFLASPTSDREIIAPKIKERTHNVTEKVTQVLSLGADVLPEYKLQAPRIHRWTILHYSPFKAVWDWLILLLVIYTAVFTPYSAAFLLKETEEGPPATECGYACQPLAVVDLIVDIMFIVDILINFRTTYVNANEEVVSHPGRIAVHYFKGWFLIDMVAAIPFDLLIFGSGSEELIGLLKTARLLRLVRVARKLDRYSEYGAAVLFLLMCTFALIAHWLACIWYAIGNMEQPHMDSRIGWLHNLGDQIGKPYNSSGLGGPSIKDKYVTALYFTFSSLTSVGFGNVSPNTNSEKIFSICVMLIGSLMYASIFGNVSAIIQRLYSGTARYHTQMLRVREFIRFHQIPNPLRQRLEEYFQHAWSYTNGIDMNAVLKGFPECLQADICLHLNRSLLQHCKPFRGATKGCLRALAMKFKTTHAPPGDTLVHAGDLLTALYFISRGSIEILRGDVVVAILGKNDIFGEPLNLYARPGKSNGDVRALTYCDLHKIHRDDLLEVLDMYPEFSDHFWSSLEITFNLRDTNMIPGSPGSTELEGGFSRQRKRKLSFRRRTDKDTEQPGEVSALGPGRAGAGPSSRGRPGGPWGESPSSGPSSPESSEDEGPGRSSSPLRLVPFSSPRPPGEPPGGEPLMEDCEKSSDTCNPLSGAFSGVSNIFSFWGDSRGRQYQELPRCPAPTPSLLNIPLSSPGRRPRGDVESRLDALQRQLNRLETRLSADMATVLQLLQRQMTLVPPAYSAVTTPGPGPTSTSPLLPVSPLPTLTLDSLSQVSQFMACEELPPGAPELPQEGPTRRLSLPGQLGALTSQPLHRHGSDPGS
Chain of AMPK alpha1/beta2/gamma1 (Homo sapiens) (O43741 whole entry, looked up): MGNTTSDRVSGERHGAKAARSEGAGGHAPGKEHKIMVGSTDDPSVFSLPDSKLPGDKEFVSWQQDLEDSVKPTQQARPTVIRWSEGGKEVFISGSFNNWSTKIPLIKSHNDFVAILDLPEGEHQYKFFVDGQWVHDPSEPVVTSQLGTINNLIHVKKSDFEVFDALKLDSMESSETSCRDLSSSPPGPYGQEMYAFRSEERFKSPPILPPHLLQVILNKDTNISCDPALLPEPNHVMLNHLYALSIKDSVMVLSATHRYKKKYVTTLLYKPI
Chain of AMPK alpha1/beta2/gamma1 (Homo sapiens) (P54619 whole entry, looked up): as the sequence (P54619 whole entry) above
Chain of AMPK alpha1/beta2/gamma1 (Homo sapiens) (Q13131 whole entry, looked up): as the sequence (Q13131 whole entry partner) above

- Activity [1]: inactive
- Tmax [2]: 0.5 h
- Activity [3]: inactive
- Activity [4]: inactive
- AUC(0-t) [6]: 188 ng·h/mL
- AUC [7]: 432 ng·h/mL
- Activity [8]: inactive
- Tmax [9]: 0.25 h
- inhibition (Hepatocyte [11]): Dose-dependent effect
- AUC [12]: 244 ng·h/mL
- MRT [13]: 5.1 h
- Tmax [14]: 0.25 h
- Activity [16]: inactive
- AUC(0-t) [19]: 825 ng·h/mL
- half-life [20]: 10.8 h
- Cmax [23]: 113 ng/mL
- MRT [26]: 5.5 h
- half-life [27]: 7.2 h
- Cmax [28]: 162 ng/mL
- AUC [30]: 889 ng·h/mL
- bioavailability [31]: 45.4%
- Activity [32]: inactive
- Cmax [37]: 114 ng/mL
- Activity [42]: inactive
- AUC(0-t) [44]: 364 ng·h/mL
- clearance (Rattus norvegicus): 76.7 mL/min/kg
- MRT [45]: 5.8 h
- Activity [46]: inactive
SMILES: CCc1cc2c(s1)CCN1Cc3c(OC)ccc(OC)c3CC21 (configuration not stated)
- Activity (Hepatocyte [5]): 16.3%
- Activity (Mus musculus [10]): Active
- Activity (Mus musculus [15]): inactive
- Activity (L6 [17]): 54%
- Activity (L6 [18]): Dose-dependent effect
- IC50 [21]: 10.5 µM
- Activity (Hepatocyte [22]): 25.7%
- inhibition (L6 [24]): Dose-dependent effect
- Activity (L6 [25]): 228.3%
- Activity (L6 [29]): Dose-dependent effect
- Activity [33]: 54%
- Activity (L6 [34]): 59.5%
- inhibition (L6 [35]): Dose-dependent effect
- Activity [36]: 76.2%
- Activity (L6 [38]): 47.5%
- Activity [39]: 41.7%
- Activity [40]: 66.3%
- Activity (Hepatocyte [41]): 14.9%
- Ratio (Hepatocyte [43]): 1.7

Reference: ChEMBL document CHEMBL4130473, “Design, synthesis and biological evaluation of 4,7,12,12a-tetrahydro-5H-thieno[3',2':3,4]pyrido[1,2-b]isoquinolines as novel adenosine 5'-monophosphate-activated protein kinase (AMPK) indirect activators for the treatment of type 2 diabetes” (Eur J Med Chem, 2017)
